Measured values as given in paper PMC4766392, “Identification and Characterization of the Glucose-6-Phosphate Dehydrogenase Gene Family in the Para Rubber Tree, Hevea brasiliensis” (Frontiers in Plant Science, 2016).

Assays:
Experiment in all cases: NADPH formation at […] nm, commercial kit, E. coli supernatant
Format in all cases: biochemical
Conditions in all cases: 25°C, MBP fusion, empty-vector control
[1] = target: T1, HbG6PDH3 (Hevea brasiliensis, UniProt A0A068LJY6)
T1 construct: gene G6PDH-3; primer with start codon ATGGGTTCGGGTCAGTGG
T1 sequence (A0A068LJY6 entry or part of it): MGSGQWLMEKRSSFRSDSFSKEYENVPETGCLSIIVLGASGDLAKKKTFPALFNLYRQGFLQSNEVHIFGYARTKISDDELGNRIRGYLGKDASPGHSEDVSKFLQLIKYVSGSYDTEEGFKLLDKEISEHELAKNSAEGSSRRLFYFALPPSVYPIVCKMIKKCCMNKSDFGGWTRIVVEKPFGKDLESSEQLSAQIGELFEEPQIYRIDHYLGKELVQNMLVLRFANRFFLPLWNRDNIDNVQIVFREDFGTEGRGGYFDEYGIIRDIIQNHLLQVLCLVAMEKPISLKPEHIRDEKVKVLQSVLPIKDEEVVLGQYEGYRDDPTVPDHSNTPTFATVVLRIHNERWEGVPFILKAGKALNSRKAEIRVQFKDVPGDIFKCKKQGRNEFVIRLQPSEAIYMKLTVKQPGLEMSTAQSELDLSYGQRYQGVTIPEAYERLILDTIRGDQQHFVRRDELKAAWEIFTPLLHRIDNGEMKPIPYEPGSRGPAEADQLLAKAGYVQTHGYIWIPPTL

[2] = target: T2, HbG6PDH2 (Hevea brasiliensis, UniProt A0A068LJJ9)
T2 construct: gene G6PDH-2; forward primer starts at ATGGCGCCCCTTTC
T2 sequence (A0A068LJJ9 entry or part of it): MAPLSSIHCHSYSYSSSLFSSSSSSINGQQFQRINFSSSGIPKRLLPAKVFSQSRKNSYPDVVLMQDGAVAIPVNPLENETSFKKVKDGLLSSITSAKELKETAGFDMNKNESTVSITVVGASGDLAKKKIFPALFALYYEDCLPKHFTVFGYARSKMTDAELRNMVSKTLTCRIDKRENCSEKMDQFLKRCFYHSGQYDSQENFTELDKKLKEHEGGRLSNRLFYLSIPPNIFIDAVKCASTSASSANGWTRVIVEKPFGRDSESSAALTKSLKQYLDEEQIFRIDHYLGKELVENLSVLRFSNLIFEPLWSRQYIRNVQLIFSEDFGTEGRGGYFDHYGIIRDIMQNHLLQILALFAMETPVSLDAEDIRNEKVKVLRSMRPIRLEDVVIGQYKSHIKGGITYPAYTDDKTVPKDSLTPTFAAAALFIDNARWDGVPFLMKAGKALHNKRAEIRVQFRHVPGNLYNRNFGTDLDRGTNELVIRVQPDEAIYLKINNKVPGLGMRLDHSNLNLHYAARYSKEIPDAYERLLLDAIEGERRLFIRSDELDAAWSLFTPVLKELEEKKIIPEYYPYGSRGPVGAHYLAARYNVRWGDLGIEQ

[3] = target: T3, HbG6PDH1 (Hevea brasiliensis, UniProt A0A068LLN2)
T3 construct: gene G6PDH-1; forward primer starts at ATGCCAAGAAAATATGG
T3 sequence (A0A068LLN2 entry or part of it): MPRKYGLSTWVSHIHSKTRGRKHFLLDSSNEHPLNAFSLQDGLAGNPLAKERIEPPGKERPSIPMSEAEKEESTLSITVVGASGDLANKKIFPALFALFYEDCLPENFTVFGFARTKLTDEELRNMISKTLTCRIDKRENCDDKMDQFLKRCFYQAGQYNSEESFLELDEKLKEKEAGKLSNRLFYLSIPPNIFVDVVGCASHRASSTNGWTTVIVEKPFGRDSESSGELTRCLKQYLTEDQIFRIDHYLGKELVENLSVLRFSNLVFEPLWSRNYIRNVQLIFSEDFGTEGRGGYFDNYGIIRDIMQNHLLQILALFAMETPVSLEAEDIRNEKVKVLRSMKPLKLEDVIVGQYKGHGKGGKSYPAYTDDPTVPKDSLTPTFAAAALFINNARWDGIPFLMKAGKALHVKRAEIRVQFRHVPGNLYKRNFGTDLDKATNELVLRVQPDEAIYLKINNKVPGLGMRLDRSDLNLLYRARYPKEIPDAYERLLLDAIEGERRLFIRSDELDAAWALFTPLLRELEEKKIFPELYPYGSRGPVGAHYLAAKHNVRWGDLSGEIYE

[4] = target: T4, HbG6PDH4 (Hevea brasiliensis, UniProt A0A068LJB4)
T4 construct: gene G6PDH-4; primer with start codon ATGTCGATGTCAATTTC
T4 sequence (A0A068LJB4 entry or part of it): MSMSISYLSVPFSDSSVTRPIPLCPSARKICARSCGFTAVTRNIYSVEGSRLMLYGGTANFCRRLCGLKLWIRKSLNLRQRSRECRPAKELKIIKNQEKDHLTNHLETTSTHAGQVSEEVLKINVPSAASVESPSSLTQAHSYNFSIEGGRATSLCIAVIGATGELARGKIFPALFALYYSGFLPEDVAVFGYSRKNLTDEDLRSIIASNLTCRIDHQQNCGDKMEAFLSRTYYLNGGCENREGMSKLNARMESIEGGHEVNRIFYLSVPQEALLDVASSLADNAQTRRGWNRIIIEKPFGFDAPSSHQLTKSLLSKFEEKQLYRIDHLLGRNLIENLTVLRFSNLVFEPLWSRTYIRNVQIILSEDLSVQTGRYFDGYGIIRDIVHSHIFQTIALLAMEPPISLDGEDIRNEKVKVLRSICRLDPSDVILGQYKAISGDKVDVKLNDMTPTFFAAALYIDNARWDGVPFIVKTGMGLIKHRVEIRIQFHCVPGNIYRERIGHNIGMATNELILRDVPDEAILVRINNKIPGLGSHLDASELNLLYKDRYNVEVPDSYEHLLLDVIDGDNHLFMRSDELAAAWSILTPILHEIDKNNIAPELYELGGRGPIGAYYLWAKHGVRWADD

[5] = glucose-6-phosphate as co-substrate

Structure (SMILES) | NADPH formation at 340 nm, commercial kit, E. coli supernatant [1, 5] | NADPH formation at 340 nm, commercial kit, E. coli supernatant [2, 5] | NADPH formation at 340 nm, commercial kit, E. coli supernatant [3, 5] | NADPH formation at 340 nm, commercial kit, E. coli supernatant [4, 5] | NADPH formation at 340 nm, commercial kit, E. coli supernatant ([1]; NADP+ as co-substrate) | NADPH formation at 340 nm, commercial kit, E. coli supernatant ([2]; NADP+ as co-substrate) | NADPH formation at 340 nm, commercial kit, E. coli supernatant ([3]; NADP+ as co-substrate) | NADPH formation at 340 nm, commercial kit, E. coli supernatant ([4]; NADP+ as co-substrate)
NC(=O)c1ccc[n+]([C@@H]2O[C@H](COP(=O)(O)OP(=O)(O)OC[C@H]3O[C@@H](n4cnc5c(N)ncnc54)[C@H](OP(=O)(O)O)[C@@H]3O)[C@@H](O)[C@H]2O)c1 [NADP^+] | all four HbG6PDH genes encode enzymatically active G6PDHs | all four HbG6PDH genes encode enzymatically active G6PDHs | all four HbG6PDH genes encode enzymatically active G6PDHs | all four HbG6PDH genes encode enzymatically active G6PDHs |  |  |  | 
O=P(O)(O)OC[C@H]1OC(O)[C@H](O)[C@@H](O)[C@@H]1O (some centres unmarked) [glucose-6-phosphate] |  |  |  |  | all four HbG6PDH genes encode enzymatically active G6PDHs | all four HbG6PDH genes encode enzymatically active G6PDHs | all four HbG6PDH genes encode enzymatically active G6PDHs | all four HbG6PDH genes encode enzymatically active G6PDHs
